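Step 1: Grow cells in 96-well plates. Step 2: Expose to compound for 48 hours at 5 concentrations. Step 3: Interpolate endpoints linearly; if unreached, use highest concentration. The concentration for full growth arrest is given as TGI.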
Tests used:
Experiment in all cases: NCI anticancer screen, dose series, 48 h
[1] = test system: CAKI-1 renal
[2] = test system: NCI-H460 lung
[3] = test system: MOLT-4 leukemia
[4] = test system: LOX IMVI melanoma
[5] = test system: LXFL 529 NSCLC
[6] = test system: RPMI-8226 leukemia
[7] = test system: U251 CNS
[8] = test system: 786-0 renal
[9] = test system: A498 renal
[10] = test system: HOP-92 NSCLC
[11] = test system: SF-539 CNS
[12] = test system: HCT-116 colon
[13] = test system: SNB-75 CNS
[14] = test system: EKVX NSCLC
[15] = test system: HCC-2998 colon
[16] = test system: K-562 leukemia
[17] = test system: SNB-19 CNS
[18] = test system: SF-295 CNS
[19] = test system: OVCAR-8 ovarian
[20] = test system: OVCAR-4 ovarian
[21] = test system: XF 498 CNS
[22] = test system: NCI-H226 lung
[23] = test system: OVCAR-3 ovarian
[24] = test system: SK-MEL-28 melanoma
[25] = test system: A549 NSCLC
[26] = test system: UO-31 renal
[27] = test system: SNB-78 CNS
[28] = test system: UACC-257 melanoma
[29] = test system: NCI-H522 lung
[30] = test system: DMS 114 small cell lung
[31] = test system: RXF-631 renal
[32] = test system: DLD-1 colon
[33] = test system: SR leukemia
[34] = test system: HCT-15 colon
[35] = test system: HL-60(TB) leukemia
[36] = test system: SF-268 CNS
[37] = test system: HOP-62 NSCLC
[38] = test system: SN12C renal
[39] = test system: ACHN renal
[40] = test system: TK-10 renal
[41] = test system: KM20L2 colon
[42] = test system: SW-620 colon
[43] = test system: SK-OV-3 ovarian
[44] = test system: M14 melanoma
[45] = test system: HOP-18 NSCLC
[46] = test system: IGROV1 ovarian
[47] = test system: RXF 393 renal
[48] = test system: KM12 colon
[49] = test system: OVCAR-5 ovarian
[50] = test system: MALME-3M melanoma
[51] = test system: SK-MEL-5 melanoma
[52] = test system: COLO 205 colon
[53] = test system: DMS 273 small cell lung
[54] = test system: M19-MEL melanoma
[55] = test system: HT29 colon
[56] = test system: UACC-62 melanoma
[57] = test system: CCRF-CEM leukemia
[58] = test system: NCI-H23 lung
[59] = test system: SK-MEL-2 melanoma

CNC(=S)NC(=S)N(C)C
TGI [1]: > 100 µM
TGI [2]: > 100 µM
TGI [3]: > 100 µM
TGI [4]: > 100 µM
TGI [5]: > 100 µM
TGI [6]: > 100 µM
TGI [7]: > 100 µM
TGI [8]: > 100 µM
TGI [9]: > 100 µM
TGI [10]: > 100 µM
TGI [11]: > 100 µM
TGI [12]: > 100 µM
TGI [13]: > 100 µM
TGI [14]: > 100 µM
TGI [15]: > 100 µM
TGI [16]: > 100 µM
TGI [17]: > 100 µM
TGI [18]: > 100 µM
TGI [19]: > 100 µM
TGI [20]: > 100 µM
TGI [21]: > 100 µM
TGI [22]: > 100 µM
TGI [23]: > 100 µM
TGI [24]: > 100 µM
TGI [25]: > 100 µM
TGI [26]: > 100 µM
TGI [27]: > 100 µM
TGI [28]: > 100 µM
TGI [29]: > 100 µM
TGI [30]: > 100 µM
TGI [31]: > 100 µM
TGI [32]: > 100 µM
TGI [33]: > 100 µM
TGI [34]: > 100 µM
TGI [35]: 20 µM
TGI [36]: > 100 µM
TGI [37]: > 100 µM
TGI [38]: > 100 µM
TGI [39]: > 100 µM
TGI [40]: > 100 µM
TGI [41]: > 100 µM
TGI [42]: > 100 µM
TGI [43]: > 100 µM
TGI [44]: > 100 µM
TGI [45]: > 100 µM
TGI [46]: > 100 µM
TGI [47]: > 100 µM

FC(F)(F)c1cccc2ns[s+]c12
TGI [1]: > 100 µM
TGI [48]: > 100 µM
TGI [2]: > 100 µM
TGI [3]: > 100 µM
TGI [4]: > 100 µM
TGI [5]: > 100 µM
TGI [7]: > 100 µM
TGI [8]: > 100 µM
TGI [9]: > 100 µM
TGI [11]: > 100 µM
TGI [12]: > 100 µM
TGI [13]: > 100 µM
TGI [14]: > 100 µM
TGI [15]: > 100 µM
TGI [16]: > 100 µM
TGI [17]: > 100 µM
TGI [18]: > 100 µM
TGI [49]: > 100 µM
TGI [19]: > 100 µM
TGI [20]: > 100 µM
TGI [50]: > 100 µM
TGI [21]: > 100 µM
TGI [22]: > 100 µM
TGI [23]: > 100 µM
TGI [24]: > 100 µM
TGI [25]: > 100 µM
TGI [26]: > 100 µM
TGI [27]: > 100 µM
TGI [51]: > 100 µM
TGI [28]: > 100 µM
TGI [29]: > 100 µM
TGI [31]: > 100 µM
TGI [32]: > 100 µM
TGI [33]: > 100 µM
TGI [52]: > 100 µM
TGI [53]: > 100 µM
TGI [54]: > 100 µM
TGI [55]: > 100 µM
TGI [35]: > 100 µM
TGI [36]: > 100 µM
TGI [37]: > 100 µM
TGI [56]: > 100 µM
TGI [38]: > 100 µM
TGI [39]: > 100 µM
TGI [40]: > 100 µM
TGI [41]: > 100 µM
TGI [57]: > 100 µM
TGI [42]: > 100 µM
TGI [43]: > 100 µM
TGI [58]: > 100 µM
TGI [59]: > 100 µM
TGI [44]: > 100 µM
TGI [45]: > 100 µM
TGI [46]: > 100 µM
TGI [47]: > 100 µM

CCOC(=O)N1C(=O)C2C3C=CC(C2C1=O)C1C2C(=O)N(C(=O)OCC)C(=O)C2C31 (stereo not given)
TGI [1]: > 100 µM
TGI [48]: > 100 µM
TGI [2]: > 64.4 µM
TGI [3]: > 100 µM
TGI [4]: > 64 µM
TGI [5]: > 100 µM
TGI [6]: > 100 µM
TGI [7]: > 100 µM
TGI [8]: > 100 µM
TGI [9]: > 100 µM
TGI [10]: > 100 µM
TGI [11]: > 100 µM
TGI [12]: > 55.2 µM
TGI [13]: > 100 µM
TGI [14]: > 100 µM
TGI [15]: > 100 µM
TGI [16]: > 100 µM
TGI [17]: > 100 µM
TGI [18]: > 100 µM
TGI [49]: > 100 µM
TGI [19]: > 100 µM
TGI [20]: > 100 µM
TGI [50]: > 100 µM
TGI [21]: > 100 µM
TGI [22]: > 100 µM
TGI [23]: > 100 µM
TGI [24]: > 100 µM
TGI [25]: > 100 µM
TGI [26]: > 100 µM
TGI [27]: > 100 µM
TGI [51]: > 100 µM
TGI [28]: > 100 µM
TGI [29]: > 100 µM
TGI [30]: > 70 µM
TGI [31]: > 100 µM
TGI [32]: > 100 µM
TGI [52]: > 100 µM
TGI [34]: > 67.2 µM
TGI [53]: > 60.7 µM
TGI [54]: > 100 µM
TGI [55]: > 100 µM
TGI [35]: 41.1 µM
TGI [36]: > 100 µM
TGI [37]: > 100 µM
TGI [56]: > 100 µM
TGI [38]: > 100 µM
TGI [39]: > 100 µM
TGI [40]: > 100 µM
TGI [41]: > 100 µM
TGI [57]: > 100 µM
TGI [42]: > 59.4 µM
TGI [43]: > 100 µM
TGI [58]: > 100 µM
TGI [59]: > 100 µM
TGI [44]: > 100 µM
TGI [45]: > 100 µM
TGI [46]: > 100 µM
TGI [47]: > 100 µM

Source: PubChem BioAssay (NCI)
